US6316411A, “Protection against ischemia and reperfusion injury” (University of Kentucky Research Foundation, priority 2000, dated 2001)

What was measured:
mouse vas deferens = assay: Mouse vas deferens (m.v.d.) contractility assay; details: FIG. 8; 6000 nM glibenclamide with 1000 nM compound-D
Description: Glibenclamide, a KATP channel blocker, blocked the inhibition of contraction of mouse vas deferens induced by compound-D SEQ ID NO:1. With reference to FIG. 8, the effect of administration of 1000 nM compound-D SEQ ID NO:1 alone (open bar) versus 1000 nM compound-D SEQ ID NO:1 with 6000 nM glibenclamide (hatched bar) on contractility of mouse vas deferens (m.v.d.) (n=6) is shown. […] (n=2).

isolated rat hearts = assay: Isolated perfused rat heart (Langendorff), 20 min global ischemia and 120 min reperfusion after 24 h pretreatment; format: in vivo; details: FIG. 7, pretreated 24 h prior to ischemia, compound-D 2.0 mg/kg and/or naltrexone 3 mg/kg, 20 min ischemia, control about 27%
Description: Compound-D SEQ ID NO:1, at a dose of 2 mg/kg and solubilized as described above, was administered by tail vein injection into rats weighing between about 350-400 g (number of animals (n)=6). Control rats (n=6) were injected in the same manner with an equal volume of 0.9% NaCI. After 24 h, the hearts from both treated and control animals were excised and perfused in a modified Langendorff perfusion apparatus at 37° C. using oxygenated Krebs-Henseleit buffer as the perfusate, as known to one skilled in the art. Coronary perfusion pressure was maintained at 70 mm Hg by regulating coronary flow. All hearts were paced at […] (300 beats per minute, bpm) except during ischemia. A saline-filled balloon was inserted in the left ventricle to measure developed pressure (DP) and end-diastolic pressure (EDP) in mm Hg. After 15 min equilibration, both groups were subjected to 20 min zero-flow global ischemia, and then were reperfused for 120 min.
Left ventricles were isolated and divided into three segments along their short axis, stained with triphenyltetrazolium chloride, and stored in formalin. Infarct size was measured on digitized images and expressed as a per centage of myocardium. Data were expressed as mean plus or minus standard error of the mean (±SEM) and were analyze using a […] Student's t-Test. Confidence limits were established at 95%. […]

SMILES | effect of glibenclamide on compound-D suppressed m.v.d. contractions (mouse vas deferens) | infarct size (isolated rat hearts)
COc1ccc(Cl)cc1C(=O)NCCc1ccc(S(=O)(=O)NC(=O)NC2CCCCC2)cc1 [Glibenclamide] | restored m.v.d. contractions | –
O=C1CC[C@@]2(O)[C@H]3Cc4ccc(O)c5c4[C@@]2(CCN3CC2CC2)[C@H]1O5 [naltrexone] | – | about 14.5%
